Experimental data as given in paper PMC6864482, “Novel C7-Substituted Coumarins as Selective Monoamine Oxidase Inhibitors: Discovery, Synthesis and Theoretical Simulation” (Molecules, 2019).
Structures can show the parent of a compound that is named as a salt. Where two headings read alike, the source gives them in different places. Each block holds one compound with its values, some of them ahead of it.

Tests used:
[1] = molecular target: T1, hMAO-A (Homo sapiens, UniProt P21397); assay: MAO-Glo inhibition assay, hMAO-A; assay type: biochemical
T1 sequence (P21397 1-527): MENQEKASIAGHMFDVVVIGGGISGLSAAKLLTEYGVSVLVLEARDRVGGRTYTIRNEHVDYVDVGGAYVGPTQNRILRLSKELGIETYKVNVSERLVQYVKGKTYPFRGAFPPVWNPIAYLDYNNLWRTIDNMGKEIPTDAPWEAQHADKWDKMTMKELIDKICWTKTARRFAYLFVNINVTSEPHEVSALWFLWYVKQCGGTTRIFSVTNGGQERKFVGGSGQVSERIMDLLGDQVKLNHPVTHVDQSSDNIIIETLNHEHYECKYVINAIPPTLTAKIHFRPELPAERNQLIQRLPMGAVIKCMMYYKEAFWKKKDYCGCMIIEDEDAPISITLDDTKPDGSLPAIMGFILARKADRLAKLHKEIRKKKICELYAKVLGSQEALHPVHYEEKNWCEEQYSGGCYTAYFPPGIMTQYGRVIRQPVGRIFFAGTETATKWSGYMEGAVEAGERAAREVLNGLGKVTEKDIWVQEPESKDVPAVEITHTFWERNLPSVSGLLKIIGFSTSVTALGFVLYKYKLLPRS
Description: (§1) The inhibition and IC50 values of the identified C7-substituted coumarin analogues were assayed by Shanghai ChemPartner Co. Ltd., using MAO-GloTM assay kit (Promega Corporation, V1402). Two human MAO enzymes (Cat#31502, Cat#31503) were purchased from Active Motif. Clorgyline and R(-)-deprenyl were purchased as reference drugs from Sigma (Cat. No. M3778) and Abcam (Cat. No. ab120604), respectively. The MAO inhibition assays were carried out in modified HEPES buffer in light of the manufacturer’s protocol. Firstly, the tested compounds in DMSO were transferred to a 384-well plate by Echo. The enzyme solutions were then added into the plate and the plate was incubated for 15 min at room temperature (r.t.). Secondly, the luciferin derivative substrate was added to initiate the reaction. After 60 min incubation at r.t., the Luciferin detection reagent was added to each well to terminate the reaction and generate the luminescent signal. Before reading the signal, the plate was incubated for 20 min at r.t. Finally, plate reader was used to measure and record the luminescent signal and corresponding data were processed using GraphPad Prism 5.

[2] = molecular target: T2, hMAO-B (Homo sapiens, UniProt P27338); assay: MAO-Glo inhibition assay, hMAO-B; assay type: biochemical
T2 sequence (P27338 1-520): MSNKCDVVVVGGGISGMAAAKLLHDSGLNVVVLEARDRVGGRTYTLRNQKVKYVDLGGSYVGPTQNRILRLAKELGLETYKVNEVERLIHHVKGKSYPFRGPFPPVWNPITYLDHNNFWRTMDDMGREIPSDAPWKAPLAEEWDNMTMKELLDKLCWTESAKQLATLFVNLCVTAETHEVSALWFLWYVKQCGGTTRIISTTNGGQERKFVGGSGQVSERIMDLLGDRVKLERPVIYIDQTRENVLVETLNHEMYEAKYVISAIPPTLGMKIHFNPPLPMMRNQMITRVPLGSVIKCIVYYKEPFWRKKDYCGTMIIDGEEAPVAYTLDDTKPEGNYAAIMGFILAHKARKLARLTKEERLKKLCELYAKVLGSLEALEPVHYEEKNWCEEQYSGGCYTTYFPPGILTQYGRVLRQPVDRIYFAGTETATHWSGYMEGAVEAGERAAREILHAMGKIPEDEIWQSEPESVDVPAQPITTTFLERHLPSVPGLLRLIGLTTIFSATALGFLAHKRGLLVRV
Description: as §1

[3] = molecular target: T1, hMAO-A; conditions: cited from earlier work
[4] = molecular target: T2, hMAO-B; conditions: cited from earlier work; for IC50: read-out: MAO-B IC50
[5] = purchased (Specs) or synthesized compounds, read-out: MAO-A IC50
[6] = purchased (Specs) or synthesized compounds
[7] = previously identified BRS-3D hits
[8] = pIC50 = −log(IC50), previously identified BRS-3D hits
[9] = previously identified BRS-3D hits, read-out: MAO-A IC50
[10] = Table S3, Esuprone derivatives, read-out: MAO-A* IC50
[11] = experimental activity of reference ligand C18 of 2V61, source not stated

inhibition at 10 µM [1]: 28% | IC50 [1, 5]: > 10000 nM | IC50 [2, 6]: 15 nM
Structure (SMILES): Cc1cc(=O)oc2cc(OCCOc3ccccc3)ccc12 [FR5]

Structure (SMILES): CCCc1cc(=O)oc2cc(OCC(=O)N(C)C)ccc12 [M31]
MAO-A Avg. Inh% at 10 uM [3, 7]: 92% | MAO-A pIC50 [3, 8]: 6.3 | IC50 [3, 9]: 500 nM | MAO-B Avg. Inh% at 10 uM [4, 7]: 16% | MAO-B pIC50 [4, 8]: 4.2 | IC50 [4, 7]: 64600 nM

Structure (SMILES): CCS(=O)(=O)Oc1ccc2c(C)c(C)c(=O)oc2c1 [Esuprone, reference compound]
IC50 ([3]; comparison value under Table S3, MAO-A by context, source not stated, read-out: IC50 value of Esuprone): 10.7 nM

melting point: 144 to 146 °C
Structure (SMILES): CCCc1cc(=O)oc2c(C)c(OS(=O)(=O)c3ccc(C)cc3)ccc12 (as salt: benzenesulfonate) [7i, 8-Methyl-2-oxo-4-propyl-2H-chromen-7-yl 4-methylbenzenesulfonate]

melting point: 192 to 194 °C
Structure (SMILES): O=c1cc(C2CC2)c2ccc(OS(=O)(=O)c3ccc([N+](=O)[O-])cc3)cc2o1 (as salt: benzenesulfonate) [7f, 4-Cyclopropyl-2-oxo-2H-chromen-7-yl 4-nitrobenzenesulfonate]

IC50 [1, 10]: 910 nM | IC50 ([2]; Table S3, Esuprone derivatives): 9900 nM | melting point: 78 to 80 °C
Structure (SMILES): CCCc1cc(=O)oc2c(C)c(OS(=O)(=O)CC)ccc12 [7h, 8-Methyl-2-oxo-4-propyl-2H-chromen-7-yl ethanesulfonate]

IC50 [1, 10]: 11 nM | IC50 ([2]; Table S3, Esuprone derivatives): 2300 nM | melting point: 150 to 151 °C
Structure (SMILES): CCS(=O)(=O)Oc1ccc2c3c(c(=O)oc2c1C)CCC3 [5a, 6-Methyl-4-oxo-1,2,3,4-tetrahydrocyclopenta[c]chromen-7-yl ethanesulfonate]

IC50 [1, 5]: 810 nM | IC50 [2, 6]: 440 nM | melting point: 171 to 173 °C
Structure (SMILES): Cc1c(C)c2cc(Cl)c(Oc3nnc(-c4ccccc4)s3)cc2oc1=O [7c, 6-Chloro-3,4-dimethyl-7-((5-phenyl-1,3,4-thiadiazol-2-yl)oxy)-2H-chromen-2-one]

Structure (SMILES): CCc1cc(=O)oc2cc(OCC(=O)N(C)C)ccc12 [M30]
MAO-A Avg. Inh% at 10 uM [3, 7]: 56% | MAO-B Avg. Inh% at 10 uM [4, 7]: 22%

IC50 [1, 5]: 24 nM | melting point: 150 °C
Structure (SMILES): CCCc1cc(=O)oc2cc(Oc3nnc(-c4ccccc4)s3)ccc12 [7b, 7-((5-Phenyl-1,3,4-thiadiazol-2-yl)oxy)-4-propyl-2H-chromen-2-one]

Structure (SMILES): Cc1cc(=O)oc2cc(OCC(=O)N(C)C)c(Cl)cc12 [M34]
MAO-A Avg. Inh% at 10 uM [3, 7]: 19% | MAO-B Avg. Inh% at 10 uM [4, 7]: 40%

Structure (SMILES): Cc1cc(=O)oc2c(C)c(OCC(=O)N(C)C)ccc12 [M29]
MAO-A Avg. Inh% at 10 uM [3, 7]: 75% | MAO-A pIC50 [3, 8]: 5.6 | IC50 [3, 9]: 2290 nM | MAO-B Avg. Inh% at 10 uM [4, 7]: 12% | MAO-B pIC50 [4, 8]: 4

Structure (SMILES): Cc1c(C)c2cc(Cl)c(OCC(=O)N(C)C)cc2oc1=O [M32]
MAO-A Avg. Inh% at 10 uM [3, 7]: 12% | MAO-A pIC50 [3, 8]: 4.1 | IC50 [3, 9]: 81300 nM | MAO-B Avg. Inh% at 10 uM [4, 7]: 90% | MAO-B pIC50 [4, 8]: 6.2 | IC50 [4, 7]: 600 nM

IC50 [1, 10]: 170 nM | IC50 ([2]; Table S3, Esuprone derivatives): 4100 nM
Structure (SMILES): CCCc1cc(=O)oc2c(C)c(OS(=O)(=O)c3ccc(C)cc3)ccc12 [7i, 8-Methyl-2-oxo-4-propyl-2H-chromen-7-yl 4-methylbenzenesulfonate]

IC50 [1, 5]: 96 nM | IC50 [2, 6]: 2300 nM | melting point: 140 °C
Structure (SMILES): Cc1c(Oc2nnc(-c3ccccc3)s2)ccc2c3c(c(=O)oc12)CCC3 [5d]

Structure (SMILES): CNCc1cc(=O)oc2cc(OCc3cccc(Cl)c3)ccc12 [C18, reference compound]
MAO-A pIC50 [3, 11]: 4.8 | MAO-B pIC50 [4, 11]: 7

IC50 [1, 10]: 12 nM | IC50 ([2]; Table S3, Esuprone derivatives): 4900 nM | melting point: 152 °C
Structure (SMILES): Cc1ccc(S(=O)(=O)Oc2ccc3c4c(c(=O)oc3c2C)CCC4)cc1 [5b, 6-Methyl-4-oxo-1,2,3,4-tetrahydrocyclopenta[c]chromen-7-yl 4-methylbenzenesulfonate]

Structure (SMILES): Cc1cc(=O)oc2cc(OCC(=O)N(C)C)ccc12 [M33]
MAO-A Avg. Inh% at 10 uM [3, 7]: 41% | MAO-B Avg. Inh% at 10 uM [4, 7]: 8%

inhibition at 10 µM [1]: 23% | IC50 [1, 5]: > 10000 nM | IC50 [2, 6]: 18 nM
Structure (SMILES): O=C(COc1ccc2c3c(c(=O)oc2c1)CCC3)c1ccc(Cl)cc1 [FR4]

IC50 [1, 10]: 95 nM | IC50 ([2]; Table S3, Esuprone derivatives): 9000 nM
Structure (SMILES): O=c1cc(C2CC2)c2ccc(OS(=O)(=O)c3ccc([N+](=O)[O-])cc3)cc2o1 [7f, 4-Cyclopropyl-2-oxo-2H-chromen-7-yl 4-nitrobenzenesulfonate]

IC50 [1, 5]: 2000 nM | IC50 [2, 6]: 6200 nM | melting point: 158 to 160 °C
Structure (SMILES): O=c1cc(C2CC2)c2ccc(Oc3nnc(-c4ccccc4)s3)cc2o1 [7g, 4-Cyclopropyl-7-((5-phenyl-1,3,4-thiadiazol-2-yl)oxy)-2H-chromen-2-one]

IC50 [1, 10]: 1400 nM | IC50 ([2]; Table S3, Esuprone derivatives): > 100000 nM | melting point: 92 °C
Structure (SMILES): CCS(=O)(=O)Oc1ccc2c(C3CC3)cc(=O)oc2c1 [7d, 4-Cyclopropyl-2-oxo-2H-chromen-7-yl ethanesulfonate]

IC50 [1, 5]: 740 nM | inhibition at 10 µM [2]: 66% | IC50 [2, 6]: > 5000 nM
Structure (SMILES): C=CCOC(=O)COc1ccc2c3c(c(=O)oc2c1C)CCCC3 [FR3]

IC50 [1, 5]: 21 nM | IC50 [2, 6]: 120 nM | melting point: 110 to 112 °C
Structure (SMILES): CCCc1cc(=O)oc2c(C)c(Oc3nnc(-c4ccccc4)s3)ccc12 [7k, 8-Methyl-7-((5-phenyl-1,3,4-thiadiazol-2-yl)oxy)-4-propyl-2H-chromen-2-one]

IC50 [1, 5]: 2820 nM | inhibition at 10 µM [2]: 12% | IC50 [2, 6]: > 10000 nM
Structure (SMILES): Cc1c(OCC(=O)N(C)C)ccc2c3c(c(=O)oc12)CCC3 [FR2]

IC50 [1, 5]: 19 nM | inhibition at 10 µM [2]: 64% | IC50 [2, 6]: > 5000 nM
Structure (SMILES): Cc1cc(=O)oc2c(C)c(Oc3nnc(-c4ccccc4)s3)ccc12 [SP1]

IC50 [1, 5]: 1.5 nM | inhibition at 10 µM [2]: 75% | IC50 [2, 6]: > 1000 nM
Structure (SMILES): Cc1c(OC(=O)C2CC2)ccc2c3c(c(=O)oc12)CCC3 [FR1]

melting point: 171 to 174 °C
Structure (SMILES): CCCc1cc(=O)oc2c(C)c(OS(=O)(=O)c3ccc([N+](=O)[O-])cc3)ccc12 (as salt: benzenesulfonate) [7j, 8-Methyl-2-oxo-4-propyl-2H-chromen-7-yl 4-nitrobenzenesulfonate]

melting point: 192 to 194 °C
Structure (SMILES): Cc1c(OS(=O)(=O)c2ccc([N+](=O)[O-])cc2)ccc2c3c(c(=O)oc12)CCC3 (as salt: benzenesulfonate) [5c, 6-Methyl-4-oxo-1,2,3,4-tetrahydrocyclopenta[c]chromen-7-yl 4-nitrobenzenesulfonate]

IC50 [1, 10]: < 5 nM | IC50 ([1]; read-out: hMAO-A IC50): ~5 nM | IC50 ([2]; Table S3, Esuprone derivatives): 590 nM
Structure (SMILES): Cc1c(OS(=O)(=O)c2ccc([N+](=O)[O-])cc2)ccc2c3c(c(=O)oc12)CCC3 [5c, 6-Methyl-4-oxo-1,2,3,4-tetrahydrocyclopenta[c]chromen-7-yl 4-nitrobenzenesulfonate]

IC50 [1, 10]: 29 nM | IC50 ([2]; Table S3, Esuprone derivatives): 1700 nM
Structure (SMILES): CCCc1cc(=O)oc2c(C)c(OS(=O)(=O)c3ccc([N+](=O)[O-])cc3)ccc12 [7j, 8-Methyl-2-oxo-4-propyl-2H-chromen-7-yl 4-nitrobenzenesulfonate]

IC50 [1, 10]: 1100 nM | IC50 ([2]; Table S3, Esuprone derivatives): 9500 nM | melting point: 132 to 134 °C
Structure (SMILES): Cc1ccc(S(=O)(=O)Oc2ccc3c(C4CC4)cc(=O)oc3c2)cc1 [7e, 4-Cyclopropyl-2-oxo-2H-chromen-7-yl 4-methylbenzenesulfonate]
